Assay results taken from patent US20100143313A1, “HOMOGENEOUS DIFFERENTIATION OF HEPATOCYTE-LIKE CELLS FROM EMBRYONIC STEM CELLS” (THE GENERAL HOSPITAL CORPORATION, priority 2008, published 2010).

Columns and labels:
Assay type in all cases: cell-based, murine
[1] = system: albumin promoter-driven GFP expression in ES-derived endoderm (ESDE) cells; test: Screening of agonists for albumin promoter-driven GFP expression in ES-derived endoderm (ESDE) cells, flow cytometry; conditions: agonist d14-d20, 2% DMSO, 1 μM Azacytidine, 1 μM Retinoic Acid, 100 μM SNAP, 1 μM A23187, 1 nM vasopressin, 200 μM IBMX, 2 mM phenobarbital, 10 mM nicotinamide, 0.1 μM PGE2; for Cell fraction of day 30 ES-derived cells positive for albumin promoter-driven GFP expression, High Glucose: high glucose DMEM; for Cell fraction of day 30 ES-derived cells positive for albumin promoter-driven GFP expression, Low Glucose: low glucose DMEM
Experimental: A transgenic ES cell for enhanced green fluorescence protein (GFP) driven by the albumin promoter was used or the purpose of quickly screening different stimulants for hepatic differentiation. After a total of 30 days of differentiation, the various agonists were evaluated for their ability to induce ES-derived endoderm (ESDE) to express the albumin gene. When the ESDE cells were cultured in high glucose conditions, none of the agonists tested were able to increase cell population fraction positive for GFP expression over 10% (Table 1):
Additionally, for the purpose of quickly screening different stimulants for hepatic differentiation, a transgenic ES cell for enhanced green fluorescence protein (GFP) driven by the albumin promoter was used for these preliminary studies. The transgenic murine J1 cell line was obtained from the National Cancer Center Research Institute (Tokyo, Japan). The murine ES cell line D3 (ATCC, Manassas, Va.) was also used to assess the differentiation of ES cells into endoderm and hepatic lineage cells. Undifferentiated ES cells were cultured in Knockout DMEM (Gibco), supplemented with 15% replacement serum, 4 mM L-glutamine (Gibco), 100 U/mL penicillin (Gibco), 100 U/ml streptomycin (Gibco), 10 μg/mL gentamycin (Gibco), 1000 units/mL Leukemia Inhibitory Factor (LIF; Chemicon International, Temecula, Calif.), and 0.1 mM 2-mercaptoethanol (Gibco) on 0.1% gelatin-coated T-75 tissue culture flasks. Culture medium was replaced every day and cells were passaged at dilutions ranging from 1:5 to 1:20 at least once a week. Cells were cultured at 37° C. and in a 5% CO2 incubator.
To isolate the ES-derived cells in co-culture, the ES cells cultured on top of collagen sandwiched hepatocytes were incubated with dispase (1 mg/mL) (Gibco) for 30-60 min at 37° C. After incubation, the ES-derived cells were detached by gentle pipetting. The collagen-sandwiched hepatocytes remained at the bottom of the dish, thus allowing separation of the ES-derived cells from the primary hepatocytes. The isolated ES-derived cells were replated (day 10) on collagen gel coated 35-mm dishes at a density of 400,000 ES-derived cells per dish and cultured in high glucose DMEM supplemented with 10% FBS, 100 ng/mL oncostatin-M (Sigma), 0.2 μM dexamethasone (Sigma), and insulin/transferrin/selenious acid (5 μg/mL, 5 μg/mL, 5 ng/mL, respectively) (BD Biosciences, San Jose, Calif.). The replated cells were allowed to recover for four days before induction of hepatocyte differentiation. […]
Alternatively, Cells were detached from the collagen surface using 10 U/ml collagenase and 1 U/ml dispase in serum-free DMEM for 30 minutes. […] Collected cells were analyzed by flow cytometry (Epics Altra; Becton Dickinson). FACS data was analyzed using CellQuest software. […]

ESDE cells [2] = test: RT-PCR gene expression of ESDE cells after agonist induction; conditions: for Transcriptional expression of tyrosine aminotransferase (Tat) / expression of albumin (Alb) and cytochrome P450 subunit 3a13 (Cyp3a13) mRNA: RT-PCR; for Transcriptional expression of tyrosine aminotransferase (Tat): over culture time; for expression of albumin (Alb) and cytochrome P450 subunit 3a13 (Cyp3a13) mRNA: day twenty-two, increased at day thirty
Experimental: Similarly, glucose-6-phosphatase (G6pc) mRNA expression could only be detected with DMSO or RA stimulation. […] Visceral endoderm marker Sox7 was also weakly expressed in every condition except with DMSO induction.
(§1) At day fourteen of culture, the ES cells were stimulated with the chemical agonists listed on Table 1 (above) in high glucose or low glucose DMEM supplemented with 10% FBS and 0.2 μM dexamethasone. The media with chemical agonists were exchanged every other day until day twenty. At day twenty of culture, the ES cells were cultured without the chemical agonists in high glucose or low glucose DMEM supplemented with 10% FBS and 0.2 μM dexamethasone. The ES cells were cultured up to day fifty with media exchange every other day.
RNA isolation was performed using the Nucleospin RNAII protocol (Clontech, Mountain View, Calif., USA). Following the removal of genomic DNA with DNase, the column was washed and RNA was eluted with distilled water. The RNA purity was quantified using the absorbance ratio at 260 nm (nucleic acids) and 280 nm (protein) and was greater than 1.9. One-Step RT-PCR kit (Qiagen, Valencia, Calif., USA) was used to analyze gene expression. Reactions were initiated using 10 ng RNA and 0.6 μM primer. RT reaction was conducted at 50° C. and 95° C. for 15 min. Three-step cycling was performed: denaturation at 94° C. for 30 s, annealing at 55° C. for 30 s, and extension at 72° C. for 1 min, with a final extension time of 10 min at 72° C. The number of cycles varied between 30 and 35. Following PCR, samples were run on a 2% agarose gel, stained with ethidium bromide, and imaged using the Fluor-X Multiimager (Bio-Rad, Hercules, Calif., USA). Mouse liver total RNA (Ambion, Austin, Tex., USA) was used as a control for hepatocyte gene expression. Markers: Foxa2, AFP, Sox 17, Albumin, GATA1, Runx2, Foxf1, NKx2.5, Tal1, Pax 6, AAT, CK8, CK18, TTR, CYP3A13, Brachyury, Goosecoid, β-actin.

[3] = system: cytochrome P450 activity (CYP1A1); test: EROD assay for inducible cytochrome P450 activity; conditions: two-day exposure to 3-methylcholanthrene, day 36
Experimental: Day-thirty-four ES-derived cells were stimulated with 2 mM 3-methycholanthrene (3-MC) for two days. The conversion of ethyoxyresorufin to fluorescent resorufin was assayed on day thirty-six of culture. Values represent mean±SEM of three experiments and repeated in duplicate.
The EROD assay was used to measure inducible cytochrome P450 activity (CYP1A1) of the hepatocyte-like cells.
The drug metabolizing activity of the ES cell-derived hepatocytes were evaluated using an ethoxyresorufin 0-de-ethylase (EROD) assay. Day thirty-four ES cells were stimulated with 2 mM 3 methycholanthrene (3-MC) for two days. On day 36, the media was replaced with 10 μM ethoxyresorufin (Invitrogen) and 80 μM dicumarol (Sigma) in Earle's Balanced Salt Solution. Solution samples were collected at 5, 15, 25, and 35 minutes after the introduction of substrates. The increase in fluorescence intensity caused by conversion of ethyoxyresorufin to fluorescent resorufin estimates the CYP1A1 activity in hepatocytes.

ESDE cells [4] = test: Urea secretion of ESDE cells into culture media (colorimetric assay); conditions: DMSO-stimulated ESDE cells
Experimental: (§2) FIGS. 3A and 3B are bar graphs showing albumin and urea secretion rates of hepatocyte-like cells. Albumin secretion was measured at various timepoints by ELISA (3A). Urea secretion was measured with a colorimetric assay (3B). […] Urea and albumin secretion rates increased up to forty days of culture. […] Values represent mean±SD of two experiments and repeated in triplicate.
(§3) The maturation of ESDE cells into functional hepatocytes was evaluated by measuring the secretion of albumin and urea into the culture media (FIG. 3). […] Neither albumin nor urea secretion was detectable before day twenty in any of the other conditions tested.
as §1, with “The ES cells were cultured up to day fifty with media exchange every other day.” left out
(§4) Collected medium samples were analyzed for secreted concentrations of mouse albumin by ELISA. […] Urea content was determined with diacetyl monoxime using a commercially available kit (StanBio Laboratory, Boerne, Tex.). The absorbance was measured with a Thermomax microplate reader (Molecular Devices, Sunnyvale, Calif.).

ESDE cells [5] = test: Glycogen staining (periodic acid-Schiff); conditions: after thirty-two days of differentiation
Experimental: Rat primary hepatocytes are capable of secreting albumin at a rate of approximately 2.0 μg/hour/10^6 cells, and the mouse hepatocarcinoma cell line Hepal-6 can produce albumin at a rate of 4.7 μg/hour/10^6 cells. The ability of the ES-derived hepatocyte-like cells to produced and store glycogen was assessed using a periodic acid-Schiff stain. […] The capacity for the hepatocyte-like cells to actively synthesize glycogen was seen after the culture media was switched from the low-glucose differentiation media to high-glucose DMEM supplemented with 10% FBS and 0.2 μM dexamethasone for two days. More intense magenta staining of the hepatocyte-like cells was found after the two-day incubation in high-glucose media.
Periodic acid-Schiff staining kit was purchased from Sigma. Cells were fixed with 4% paraformaldehyde in PBS for 20 minutes at room temperature. Staining procedures were performed according to manufacturer's instruction.

ESDE cells [6] = test: Albumin secretion of ESDE cells into culture media (ELISA); conditions: DMSO induction, low glucose
Experimental: as §2, §3
as §1, with “The ES cells were cultured up to day fifty with media exchange every other day.” left out
as §4

| Compound | Cell fraction of day 30 ES-derived cells positive for albumin promoter-driven GFP expression, High Glucose [1] [%] | Cell fraction of day 30 ES-derived cells positive for albumin promoter-driven GFP expression, Low Glucose [1] [%] | glucose-6-phosphatase (G6pc) mRNA expression (ESDE cells [2]; RT-PCR after induction) | Transcriptional expression of tyrosine aminotransferase (Tat) (ESDE cells [2]) | expression of albumin (Alb) and cytochrome P450 subunit 3a13 (Cyp3a13) mRNA (ESDE cells [2]) | also measured |
| --- | --- | --- | --- | --- | --- | --- |
| NC(=O)CC[C@@H]1NC(=O)[C@H](Cc2ccccc2)NC(=O)[C@H](Cc2ccc(O)cc2)NC(=O)[C@@H](N)CSSC[C@@H](C(=O)N2CCC[C@H]2C(=O)N[C@@H](CCCN=C(N)N)C(=O)NCC(N)=O)NC(=O)[C@H](CC(N)=O)NC1=O [vasopressin] | 4.5 | 59 | – | – | – | – |
| CCCCC[C@H](O)/C=C/[C@H]1[C@H](O)CC(=O)[C@@H]1C/C=C\CCCC(=O)O [PGE2, prostaglandin E2] | 7.8 | 57 | – | – | – | – |
| CC1=C(/C=C/C(C)=C/C=C/C(C)=C/C(=O)O)C(C)(C)CCC1 [Retinoic Acid, all-trans retinoic acid] | – | – | detected | highest at day thrity | could be detected by day twenty-two | – |
| C[S+](C)[O-] [DMSO, Dimethyl sulfoxide] | – | – | detected | highest at day thrity | could be detected by day twenty-two | EROD activity compared to cells cultured in high glucose media without DMSO stimulation [3]: 20 fold; EROD activity over cells cultured in low glucose media without DMSO stimulation [3]: 4.5 fold; urea secretion rate (ESDE cells [4]; day 22): 0.36 μg/hour/106 cells; urea secretion rate (ESDE cells [4]; day forty): 2.45 μg/hour/10^6 cells; glycogen stores (periodic acid-Schiff stain) (ESDE cells [5]): visible glycogen stores; albumin secretion rate (ESDE cells [6]; day forty): 3.09 μg/hour/10^6 cells; albumin secretion rate (ESDE cells [6]; day twenty-two): 0.34 μg/hour/10^6 cells; Definitive endoderm marker Sox17 expression (ESDE cells [2]; RT-PCR after induction): down-regulated |
